The test system of data set [1] is A. baumannii ATCC19606. Nature of the data set: microbe, parasite or virus in culture. Conditions: Acinetobacter baumannii, ATCC19606, read-out: MIC alone.
For data set [2], the system named is A. baumannii ATCC19606.
Another data set relates to Staphylococcus aureus. Conditions: S. aureus, sensitive.
For the next data set, the system named is Escherichia coli. The conditions noted are these: E. coli, sensitive.
Another data set has as its system Pseudomonas aeruginosa. The conditions noted are these: P. aeruginosa, sensitive.
Data set [3] concerns twenty biofilm-forming A. baumannii strains. As to the kind of experiment: Inhibition of biofilm formation (crystal violet). Format: cell-based, Acinetobacter baumannii. On the set-up: Percent biofilm forming inhibition: concentration or dose not given beside the values. How it is done: We determined the ability of peptides to inhibit biofilm formation in twenty biofilm-forming strains using the method described by [Karyne et al. (2020)] with some modifications. Briefly, biofilm-forming strains of A. baumannii were adjusted to an equivalent of the 0.5 McFarland standard in 2× Luria Bertani (LB) broth supplemented with 20% glucose. Then, 50 µL of A. baumannii and 50 µL of peptides were added. […] The plates were incubated overnight at 37 °C. After 24 h of incubation, the culture medium was gently removed, and the wells were washed three times with phosphate-buffered saline. The adherent cells were fixed with absolute methanol for 10 min, stained with 0.4% crystal violet for 15 min, and washed three times with sterile distilled water, then air-dried. The plates were then filled with 250 µL of 33% acetic acid for 15 min. The absorbance at OD595 nm was determined. All experiments were performed in three independent assays, each repeated in triplicate, and the percentage of biofilm reduction was calculated based on treated wells vs. non-treated wells.

The next data set has as its system Bacillus subtilis. Conditions: B. subtilis, sensitive.
In another data set the test system is Klebsiella pneumoniae. The conditions noted are these: K. pneumoniae, sensitive.
Data set [4] deals with A. baumannii ATCC19606. The conditions noted are these: ATCC19606.
Another data set concerns HepG2 cell line. As to the kind of experiment: MTT cell viability assay. It is filed as cell-based, human. Conditions: mean of n = 3. On the set-up: key to Mean cell viability (Mean 2; control = 100): % viability relative to control (control = 100%). How it is done: We aimed to determine the effects of peptides on cell viability and proliferation in the human hepatocellular carcinoma HepG2 cell line. The MTT assay was performed as described by [Muangpat et al. (2022)] with some modifications. The cells were cultured in Dulbecco’s Modified Eagle Medium (DMEM; Sigma-Aldrich, St. Louis, MO, USA), supplemented with 10% fetal bovine serum (FBS), 100 U/ml penicillin, and 100 μg/ml streptomycin at 37 °C in 5% CO^2 and 95% humidity. The cells were seeded into a 96-well plate at a density of 1 × 10^4 cells/well and allowed to adhere overnight. Then, the cells were exposed for 24 h to various concentrations of peptides. The control cells were cultured in complete DMEM medium containing 0.2% DMSO. After the 24-h incubation period, 20 μL of MTT solution (5 mg/mL in PBS) (Tokyo Chemical Industry Co., Ltd., Tokyo, Japan) was added to each well and incubated for another 2 h at 37 °C. The culture medium was then removed, and formazan crystals formed by viable cells were dissolved in 100 μL of DMSO before measuring the absorbance at 590 nm using a microplate spectrophotometer. The effect of the peptide on cell viability was calculated as a percentage of the control, which was arbitrarily assigned a value of 100% viability. The percentage of cell viability was calculated relative to the control group. The IC₅₀ of the peptides was defined as the concentration that caused a 50% reduction in cell viability compared with the control. The MTT assay was conducted in three independent experiments, each with triplicate wells per condition.

≈ marks a conversion by molar mass, not a printed value. Read-outs that look alike come from different tables or passages of the source. Where no end group is shown, it is not given here.

In the case of `O=C(O)CC(O)(CC(=O)O)C(=O)O` [Citric acid, reference compound], the MIC in the data set with A. baumannii ATCC19606 [1] came to 5000 µg/mL (≈ 26 mM). Also, in the data set with A. baumannii ATCC19606 [2] (A. baumannii 19606, microdilution, triplicate samples), the “MIC values of outer membrane permeabilizers and colistin” value was found to be 5000 µg/mL.

On to “LIAIQIAIKGMLNGWFTGVGFRRKR-NH2 [PE04-1(NH2)]”, for which the “Minimum Inhibitory Concentration (MIC)” value was 39.06 µg/mL in the data set with Staphylococcus aureus; 156.25 µg/mL in the data set on Escherichia coli; 2500 µg/mL in the data set with Pseudomonas aeruginosa; 19.531 µg/mL in the data set with Bacillus subtilis; 625 µg/mL with Klebsiella pneumoniae; 156.25 µg/mL in the data set with A. baumannii ATCC19606 [2] (A. baumannii 19606, sensitive). For the same compound, the “Minimum Inhibitory Concentration (MIC)” value was 156.25 µg/mL with MDR-AB, XDR-AB (strain AB003, MDR-AB); 156.25 µg/mL in the data set on MDR-AB, XDR-AB (strain AB183, XDR-AB); 312.5 µg/mL in the data set with MDR-AB, XDR-AB (strain AB329, XDR-AB); 312.5 µg/mL with MDR-AB, XDR-AB (strain CR89, MDR-AB). Also, the “Percent biofilm forming inhibition” value in data set [3] (strain AB263, MDR-AB, 2014) is recorded as 89.6713%. Also, the “average percent inhibition of biofilm formation” value in [3] (twenty A. baumannii strains, peptide at MIC (312.5, 156.25, 156.25 µg/mL), 24 h, crystal violet OD595) was found to be 75.51%. The MIC values with A. baumannii ATCC19606 [2] (A. baumannii 19,606, microdilution, MHB, 37 °C overnight, triplicate samples) turned out to be 156.25 µg/mL. In addition, in the data set with A. baumannii ATCC19606 [2] (A. baumannii ATCC19606), the “MIC (ATCC19606)” value was 156.25 µg/mL. The “FIC index, peptide plus colistin” value in the data set with A. baumannii ATCC19606 [4] worked out at 0.19. Further, the “Mean cell viability (Mean 2; control = 100)” value is on record as 94.88 in the data set on HepG2 cell line (peptide concentration 25 (unit not given)); 86.43 in the data set on HepG2 cell line (peptide concentration 50 (unit not given)); 81.93 in the data set with HepG2 cell line (peptide concentration 156.25 (unit not given)); 76.66 in the data set on HepG2 cell line (peptide concentration 300 (unit not given)); 49.65 with HepG2 cell line (peptide concentration 600 (unit not given)); 28.83 with HepG2 cell line (peptide concentration 800 (unit not given)).

These data come from publication PMC11674141, “Antimicrobial activity and synergistic effect of phage-encoded antimicrobial peptides with colistin and outer membrane permeabilizing agents against Acinetobacter baumannii” (PeerJ, 2024).
